The source of these data is ChEMBL document CHEMBL1123565, “Synthesis and 5-hydroxytryptamine antagonist activity of 2-[[2-(dimethylamino)ethyl]thio]-3-phenylquinoline and its analogues” (J Med Chem, 1987).

Experiment [1] concerns Rattus norvegicus. The experiment can be described thus: Antagonistic activity against fenfluramine induced hyperthermia in rat after peroral administration. Type of experiment: functional. The note with it: po, read-out: ID50 (the source's name).
Experiment [2] deals with Mus musculus. In words: Antagonistic activity test against 5-Hydroxytryptamine-induced head shake in mouse after intraperitoneal administration. The note with it: ip, read-out: ID50 (the source's name). Type of experiment: functional.
Experiment [3] deals with Rattus norvegicus. The experiment can be described thus: compound was tested for antagonistic activity against fenfluramine induced hyperthermia in rat after peroral administration at 50 mg/kg; NA denotes not active. Details: dose 50 mg/kg. The experiment is classed as functional, organism-based.
In experiment [4] the test system is Rattus norvegicus. The experiment can be described thus: compound was tested for antagonistic activity against fenfluramine induced hyperthermia in rat after peroral administration 0.02-0.3. Type of experiment: functional. The note with it: po, read-out: ID50 (the source's name).
Experiment [5] relates to Mus musculus. In words: compound was tested for antagonistic activity against 5-Hydroxytryptamine-induced head shake in mouse after intraperitoneal administration; Value ranges from 0.02-0.9. The experiment is classed as functional. The note with it: ip, read-out: ID50 (the source's name).
The species named for experiment [6] is Mus musculus. The experiment can be described thus: compound was tested for antagonistic activity against 5-Hydroxytryptamine-induced head shake in mouse. The experiment is classed as functional. The note with it: read-out: ID50 (the source's name).
Experiment [7] relates to Mus musculus. The experiment can be described thus: compound was tested for antagonistic activity against 5-Hydroxytryptamine-induced head shake in mouse after intraperitoneal administration; Value ranges from 1.0-2.5. Type of experiment: functional. The note with it: ip, read-out: ID50 (the source's name).
In experiment [8] the test system is Rattus norvegicus. In words: compound was tested for antagonistic activity against fenfluramine induced hyperthermia in rat after peroral administration; Value ranges from 0.3-4.3. The note with it: po, read-out: ID50 (the source's name). Type of experiment: functional.
Experiment [9] deals with Rattus norvegicus. In words: compound was tested for antagonistic activity against fenfluramine induced hyperthermia in rat after peroral administration at 50 mg/kg. The experiment is classed as functional, organism-based. Details: dose 50 mg/kg.
Experiment [10] deals with Mus musculus. The experiment can be described thus: compound was tested for antagonistic activity against 5-Hydroxytryptamine-induced head shake in mouse after intraperitoneal administration; NA denotes not active at a dose of 50 mg/kg. Type of experiment: functional, organism-based. Details: dose 50 mg/kg.
Experiment [11] has as its system Rattus norvegicus. The experiment can be described thus: compound was tested for antagonistic activity against fenfluramine induced hyperthermia in rat after peroral administration at a dose of 50 mg/kg; NA denotes not active. The experiment is classed as functional, organism-based. Details: dose 50 mg/kg.
Experiment [12] concerns Mus musculus. In words: compound was tested for antagonistic activity against 5-Hydroxytryptamine-induced head shake in mouse after intraperitoneal administration; NA denotes not active. The experiment is classed as functional, organism-based.

The source made the active and inactive calls. The rule behind the calls is not given here.

Consider `CCCOc1ccc2cc(-c3ccccc3)c(SCCN(C)C)nc2c1.O=C(O)C(=O)O`, for which the ED50 in the experiment with Rattus norvegicus [1] and in the experiment on Mus musculus [2] was 50 mg/kg in each case.
In the case of `COc1ccc(OC)c(-c2cc3ccccc3nc2SCCN(C)C)c1.Cl`, the figures for the ED50 in the experiment on Rattus norvegicus [1] and with Mus musculus [2] were 4.2 mg/kg and 3 mg/kg, respectively.
As for `CN(C)CCSc1nc2ccccc2cc1Cc1ccccc1.Cl`, the ED50 in the experiment on Mus musculus [2] came to 50 mg/kg. For the same compound, the ID50 result with Rattus norvegicus [3] was “inactive”.
`Cc1cccc(-c2cc3ccccc3nc2SCCN(C)C)c1.Cl`: the ED50 with Rattus norvegicus [1] is 5.9 mg/kg; in the experiment on Mus musculus [2], 1.7 mg/kg.
Regarding `COc1ccc2nc(SCCN(C)C)c(-c3ccccc3)cc2c1.O=C(O)C(=O)O`, the ED50 in the experiment with Rattus norvegicus [1] amounted to 8.3 mg/kg; in the experiment with Mus musculus [2] it was 50 mg/kg.
The matching figures for `Cc1ccc(-c2cc3ccccc3nc2SCCN(C)C)cc1.Cl`: 4.2 mg/kg and 1.9 mg/kg.
`CN(C)CCSc1nc2ccccc2cc1-c1ccccc1Cl.Cl`: the ED50 is 9.9 mg/kg with Rattus norvegicus [1] and 50 mg/kg in the experiment with Mus musculus [2].
Taken in the same sequence, the figures for `COc1ccc(-c2cc3ccccc3nc2SCCN(C)C)cc1.Cl` were 28 mg/kg and 5.9 mg/kg.
Consider `O=C(c1ccc(F)cc1)C1CCN(CCn2c(=O)[nH]c3ccccc3c2=O)CC1` [KETANSERIN], for which the ED50 is 0.1 mg/kg in the experiment with Rattus norvegicus [4] and 0.5 mg/kg with Mus musculus [5].
Consider `COc1ccccc1-c1cc2ccccc2nc1SCCN(C)C.Cl`, for which the ED50 came to 4.6 mg/kg with Rattus norvegicus [1] and 1.2 mg/kg in the experiment with Mus musculus [2].
The matching figures for `COc1c(-c2ccccc2C)c(SCCN(C)C)nc2ccccc12.Cl`: 7.2 mg/kg and 50 mg/kg.
The matching figures for `CCCOc1ccc(-c2cc3ccccc3nc2SCCN(C)C)cc1.Cl`: 5.3 mg/kg and 0.5 mg/kg.
The matching figures for `CC(C)c1cc2ccccc2nc1SCCN(C)C.Cl`: 2.7 mg/kg and 2.6 mg/kg.
As for `CCCc1cc2ccccc2nc1SCCN(C)C.O=C(O)C(=O)O`, the ED50 in the experiment listed under Mus musculus [6] stood at 5 mg/kg. Also, in the experiment on Rattus norvegicus [3], the ID50 result was “inactive”.
Turning to `COc1ccc2cc(-c3ccccc3)c(SCCN(C)C)nc2c1.Cl`, the ED50 in the experiment on Rattus norvegicus [1] came to 3.1 mg/kg; in the experiment with Mus musculus [2], 50 mg/kg.
As to `CN(C)CCSc1nc2ccccc2cc1-c1ccccc1.Cl`, the ED50 in the experiment on Mus musculus [7] is 1.6 mg/kg; in the experiment with Rattus norvegicus [8], 1.2 mg/kg.
Take `CC(c1ccccc1)c1cc2ccccc2nc1SCCN(C)C.O=C(O)C(=O)O` (configuration not stated): the ED50 in the experiment on Mus musculus [2] amounted to 50 mg/kg. The ID50 entry with Rattus norvegicus [3] is “inactive”.
`Cc1cc2ccccc2nc1SCCN(C)C`: the ID50 entry with Rattus norvegicus [9] and in the experiment with Mus musculus [10] was “inactive” each time.
For the compound `COc1c(-c2ccccc2)c(SCCN(C)C)nc2ccccc12.O=C(O)C(=O)O`, the ED50 in the experiment on Rattus norvegicus [1] turned out to be 5.5 mg/kg; in the experiment with Mus musculus [2] it was 3.5 mg/kg.
The matching figures for `Cl.NCCSc1nc2ccccc2cc1-c1ccccc1`: 4.8 mg/kg and 50 mg/kg.
Consider `Cc1c(C(C)C)c(SCCN(C)C)nc2ccccc12.O=C(O)C(=O)O`, for which the ED50 in the experiment with Mus musculus [2] was found to be 50 mg/kg. Also, in the experiment on Rattus norvegicus [3], the ID50 result is “inactive”.
`CN(C)CCSc1nc2ccccc2cc1-c1ccc(C(F)(F)F)cc1.Cl`: the ID50 result in the experiment on Rattus norvegicus [11] is “inactive”. In the experiment with Mus musculus [2], the ED50 was 50 mg/kg.
In the case of `CN(C)CCSc1nc2cc(N(C)C)ccc2cc1-c1ccccc1.O=C(O)C(=O)O`, the ED50 in the experiment with Rattus norvegicus [1] was 50 mg/kg. Besides, the ID50 entry in the experiment on Mus musculus [12] is “inactive”.
`CN(C)CCSc1nc2ccccc2cc1C1CC1.O=C(O)C(=O)O`: the ED50 turned out to be 25 mg/kg with Rattus norvegicus [1] and 3.4 mg/kg with Mus musculus [2].
Taken in the same sequence, the figures for `CCCCc1cc2ccccc2nc1SCCN(C)C.Cl` were 50 mg/kg and 2.3 mg/kg.
The matching figures for `CN(C)CCSc1nc2ccccc2cc1-c1cccc(F)c1.Cl`: 4.6 mg/kg and 2.5 mg/kg.
The matching figures for `CN(C)CCSc1nc2ccccc2cc1-c1ccc(O)cc1.Cl`: 50 mg/kg and 7.9 mg/kg.
On to `Cc1c(-c2ccc(F)cc2)c(SCCN(C)C)nc2ccccc12.O=C(O)C(=O)O`, for which the ED50 with Rattus norvegicus [1] was 11.1 mg/kg; with Mus musculus [2], 50 mg/kg.
On to `CN(C)CCSc1nc2ccccc2cc1-c1ccsc1.O=C(O)C(=O)O`, for which the ED50 with Rattus norvegicus [1] stood at 7.9 mg/kg; in the experiment with Mus musculus [2] it was 3.4 mg/kg.
Taken in the same sequence, the figures for `CN(C)CCSc1nc2ccc(Cl)cc2cc1-c1ccccc1.O=C(O)C(=O)O` were 50 mg/kg and 50 mg/kg.
Consider `CN(C)CCSc1nc2ccccc2cc1C1CCCC1.O=C(O)C(=O)O`, for which, in the experiment on Mus musculus [2], the ED50 was found to be 50 mg/kg. Further, the ID50 result with Rattus norvegicus [3] was “inactive”.
